Data reported in patent US20180125835A1, “Dosage and Use of an A2A Antagonist” (H. Lundbeck A/S, priority 2014, published 2018).
Read-outs that look alike come from different tables or passages of the source.

Test: Safety and tolerability study, single-dose pharmacokinetics (Parts A, B, C)
Format: in vivo, human
Conditions: for intra-subject variability (CV %) for AUC0-inf / intra-subject variability (CV %) for Cmax: across the fasting doses; for half-life / Vd/F / Tmax / AUC(0-inf) / Cmax / AUC(0-t): human, oral; for Vd/F: read-out: Vz/F
[1] = both sexes, plasma, 5 mg, Part B, healthy elderly overall, arithmetic mean
[2] = both sexes, plasma, 5 mg, Part C, elderly men and women, Fasting (N = 24)
[3] = both sexes, plasma, 5 mg, Part C, elderly men and women, Fed (N = 12)
[4] = both sexes, plasma, 10 mg, Part B, healthy elderly overall, arithmetic mean
[5] = female, plasma, 5 mg, Part B, healthy elderly women, arithmetic mean
[6] = female, plasma, 10 mg, Part B, healthy elderly women, arithmetic mean
[7] = male, plasma, 1 mg, Part A, healthy young men, 1 mg single dose, mean (CV %)
[8] = male, plasma, 5 mg, Part A, healthy young men, 5 mg single dose, mean (CV %)
[9] = male, plasma, 5 mg, Part B, healthy elderly men, arithmetic mean
[10] = male, plasma, 10 mg, Part A, healthy young men, 10 mg single dose, mean (CV %)
[11] = male, plasma, 10 mg, Part B, healthy elderly men, arithmetic mean

Description: The study was conducted in three parts: Parts A, B, and C.
Parts A and B were single-dose escalations to determine the safety and tolerability in young healthy men, and in elderly men and women, respectively. Three doses (Cohorts A1 to A3) were tested in healthy young men: 1 mg (N=6), 5 mg (N=6), and 10 mg (N=5); placebo (N=8, total of the three cohorts). […] Two doses (Cohorts B1 and B2) were tested in healthy elderly men and women: 5 mg (N=9 men/4 women), 10 mg (N=4 men/4 women); placebo (N=6 men/4 women, total of the three cohorts). […] A washout period of at least 7 days separated each dose administration.

## Cc1ccc(C(=O)Nc2nc(-c3ccco3)c(C(=O)C3CCOCC3)s2)cn1 [Compound 504]
Part B
  differences in exposure between men and women: no marked differences
Part B, healthy elderly men, 5 mg, arithmetic mean
  CL/F: 0.611 L/h
Part B, healthy elderly men, 10 mg, arithmetic mean
  CL/F: 0.908 L/h
Part B, healthy elderly overall, 5 mg, arithmetic mean
  CL/F: 0.597 L/h
Part B, healthy elderly overall, 10 mg, arithmetic mean
  CL/F: 0.844 L/h
Part B, healthy elderly women, 5 mg, arithmetic mean
  CL/F: 0.556 L/h
Part B, healthy elderly women, 10 mg, arithmetic mean
  CL/F: 0.780 L/h
Part C, 5 mg
  mean Cmax lower in the fed state than in the fasting state: approximately 23%
  overall exposure (AUC0-inf and AUC0-t) fed compared to fasting: not statistically significantly different
Part C, men
  intra-subject variability (CV %) for AUC0-inf: 27%
  intra-subject variability (CV %) for Cmax: 16%
Part C, women
  intra-subject variability (CV %) for AUC0-inf: 59%
  intra-subject variability (CV %) for Cmax: 23%
Parts A and B, post-dose
  time until which plasma concentration plateaued after Cmax: approximately 5 hours
Both sexes, in vivo, Parts A and B, 1 to 10 mg, read-out: mean half-life (t1/2) across dose levels
  half-life: 1140 to 1500 min
Both sexes, plasma, 5 mg, Part B, healthy elderly overall, 5 mg, arithmetic mean
  Vd/F: 16.9 L
Both sexes, plasma, 5 mg, Part B, healthy elderly overall, 5 mg, arithmetic mean, read-out: t1/2 (converted)
  half-life: 1320 min
Both sexes, plasma, 5 mg, Part B, healthy elderly overall, 5 mg, median, read-out: tmax
  Tmax: 1 h
[1]
  AUC(0-inf): 9580 ng·h/mL
  Cmax: 388 ng/mL
Both sexes, plasma, 5 mg, Part C, 5 mg, read-out: delay of median tmax in the fed state
  Tmax: 2 to 3 h
Both sexes, plasma, 5 mg, Part C, elderly men and women, 5 mg, Fasting (N = 24), read-out: t1/2 (converted)
  half-life: 894 min
Both sexes, plasma, 5 mg, Part C, elderly men and women, 5 mg, Fed (N = 11), read-out: t1/2 (converted)
  half-life: 948 min
[2]
  AUC(0-inf): 6310 ng·h/mL
  AUC(0-t): 5960 ng·h/mL
  Cmax: 348 ng/mL
Both sexes, plasma, 5 mg, Part C, elderly men and women, Fed (N = 11)
  AUC(0-inf): 5960 ng·h/mL
[3]
  AUC(0-t): 5560 ng·h/mL
  Cmax: 269 ng/mL
Both sexes, plasma, 10 mg, Part B, healthy elderly overall, 10 mg, arithmetic mean
  Vd/F: 20.6 L
Both sexes, plasma, 10 mg, Part B, healthy elderly overall, 10 mg, arithmetic mean, read-out: t1/2 (converted)
  half-life: 1210 min
Both sexes, plasma, 10 mg, Part B, healthy elderly overall, 10 mg, median, read-out: tmax
  Tmax: 0.75 h
[4]
  AUC(0-inf): 14900 ng·h/mL
  Cmax: 717 ng/mL
Both sexes, plasma, Parts A and B, each dose, post-dose, read-out: median tmax
  Tmax: 0.75 to 1.75 h
Dose range 1 to 10 mg
  increase of exposure (AUC0-24 and Cmax) with dose: approximate dose-proportional manner
female, plasma, 5 mg, Part B, healthy elderly women, 5 mg, arithmetic mean
  Vd/F: 13.6 L
female, plasma, 5 mg, Part B, healthy elderly women, 5 mg, arithmetic mean, read-out: t1/2 (converted)
  half-life: 1040 min
female, plasma, 5 mg, Part B, healthy elderly women, 5 mg, median, read-out: tmax
  Tmax: 1 h
[5]
  AUC(0-inf): 9550 ng·h/mL
  Cmax: 485 ng/mL
female, plasma, 10 mg, Part B, healthy elderly women, 10 mg, arithmetic mean
  Vd/F: 19.6 L
female, plasma, 10 mg, Part B, healthy elderly women, 10 mg, arithmetic mean, read-out: t1/2 (converted)
  half-life: 1130 min
female, plasma, 10 mg, Part B, healthy elderly women, 10 mg, median, read-out: tmax
  Tmax: 0.75 h
[6]
  AUC(0-inf): 14100 ng·h/mL
  Cmax: 781 ng/mL
In vivo
  differences in pharmacokinetic profile between healthy young and elderly subjects: no apparent differences
[7]
  AUC(0-inf): 2660 ng·h/mL
  Cmax: 82.7 ng/mL
  Vd/F: 13.4 L
male, plasma, 1 mg, Part A, healthy young men, 1 mg single dose, mean (CV %), read-out: t1/2 (converted)
  half-life: 1460 min
male, plasma, 1 mg, Part A, healthy young men, 1 mg single dose, median (min, max), read-out: tmax
  Tmax: 1.25 h
[8]
  AUC(0-inf): 12600 ng·h/mL
  Cmax: 423 ng/mL
  Vd/F: 14.8 L
male, plasma, 5 mg, Part A, healthy young men, 5 mg single dose, mean (CV %), read-out: t1/2 (converted)
  half-life: 1500 min
male, plasma, 5 mg, Part A, healthy young men, 5 mg single dose, median (min, max), read-out: tmax
  Tmax: 1.75 h
male, plasma, 5 mg, Part B, healthy elderly men, 5 mg, arithmetic mean
  Vd/F: 18 L
male, plasma, 5 mg, Part B, healthy elderly men, 5 mg, arithmetic mean, read-out: t1/2 (converted)
  half-life: 1410 min
male, plasma, 5 mg, Part B, healthy elderly men, 5 mg, median, read-out: tmax
  Tmax: 1 h
[9]
  AUC(0-inf): 9590 ng·h/mL
  Cmax: 356 ng/mL
[10]
  AUC(0-inf): 18100 ng·h/mL
  Cmax: 787 ng/mL
  Vd/F: 15.3 L
male, plasma, 10 mg, Part A, healthy young men, 10 mg single dose, mean (CV %), read-out: t1/2 (converted)
  half-life: 1160 min
male, plasma, 10 mg, Part A, healthy young men, 10 mg single dose, median (min, max), read-out: tmax
  Tmax: 1 h
male, plasma, 10 mg, Part B, healthy elderly men, 10 mg, arithmetic mean
  Vd/F: 21.6 L
male, plasma, 10 mg, Part B, healthy elderly men, 10 mg, arithmetic mean, read-out: t1/2 (converted)
  half-life: 1300 min
male, plasma, 10 mg, Part B, healthy elderly men, 10 mg, median, read-out: tmax
  Tmax: 0.75 h
[11]
  AUC(0-inf): 15700 ng·h/mL
  Cmax: 652 ng/mL
